{"source": "patent EP1360959A1", "about": "“Use of 8-prenylflavanones for anti-angiogenesis therapy and for fibrinolytic therapy” (Schering Aktiengesellschaft, priority 2002, dated 2003)", "type_in_all_cases": "cell-based, Bovine", "key": {"BME cells [1]": {"system": "BME cells", "experiment": "5 day proliferation assay", "conditions": "Bos taurus; for inhibition at 30 µM: maximal inhibitory effect, read-out: % inhibition of BME cell proliferation", "description": "BME cells were seeded into gelatin-coated wells of 24 well plates at 10'000 cells per well in α-MEM supplemented with 5% DCS. 24 hours later, fresh medium was added together with 8-Prenylnaringenin at the indicated concentrations or TGF-β1 (1ng/ml), and bFGF (10ng/ml) was added to half the wells. 2 days later, medium and compounds were renewed, and after a further 3 days (i.e. 5 day assay), cells were trypsinized and counted in a FACScan Analyzer. Results are shown as % inhibition calculated from the mean of duplicate wells.\n8-Prenylnaringenin reduces endothelial cell number in a 5 day proliferation assay. BME cells were seeded into 24 well plates at 10'000 cells per well in medium containing 5% DCS. 24 hours later, cells were treated with 8-Prenylnaringenin at the indicated concentrations or with TGF-β1 (1ng/ml), and bFGF (10ng/ml) was added to half the wells. Results are shown as % inhibition calculated from the mean of duplicate wells."}, "BME cells [2]": {"system": "BME cells", "experiment": "In vitro angiogenesis assay (invasion of three-dimensional collagen gels)", "excerpt": "bFGF and VEGF induce BME and BAE cells to invade three-dimensional collagen gels, and this is accompanied by the formation of capillary like tubular structures (Montesano et al., Proc. Natl. Acad. Sci. USA 83: 7297-7301, 1986; Pepper et al., Biochem. Biophys. Res. Comm. 189: 824-831, 1992; Pepper et al., Exp. Cell Res. 204: 356-363, 1993, Pepper et al., J. Cell Sci. 108: 73-83, 1995). In addition, bFGF and VEGF induce a synergistic invasive response in BME and BAE cells (Pepper et al., 1992, Biochem. Biophys. Res. Commun. 189: 824-831; Pepper et al 1995, J. Cell Sci. 108: 73-83).\nThree-dimensional collagen gels were prepared as described (Montesano et al., Cell 42: 469-477, 1985): 8 volumes of a solution of type I collagen from rat tail tendons (approximately 1.5mg/ml) were mixed with 1 volume of 10x minimal essential medium and 1 volume of sodium bicarbonate (11.76mg/ml) on ice, dispensed into 18mm tissue culture wells, and allowed to gel at 37 °C for 10 minutes. […] Invasion was quantitated by determining the total additive length of all cellular structures which had penetrated beneath the surface monolayer either as apparently single cells or in the form of cell cords (Pepper et al., Biochem. Biophys. Res. Comm. 189: 824-831, 1992). Results are expressed as the mean total additive sprout length in µm ± s.e.m., and are from three separate experiments per condition. […]"}, "BME cells [3]": {"system": "BME cells", "experiment": "Toxicity observed in BME cell cultures"}, "uPA mRNA [4]": {"system": "uPA mRNA", "experiment": "Northern blot analysis, uPA mRNA, BME cells", "conditions": "10µM, after 9 hours", "description": "(§1) (±)-8-Prenylnaringenin or genistein were added to confluent BME cell monolayers to which fresh medium containing 5% DCS had been added 24 hours previously. Total cellular RNA was prepared after the indicated times using Trizol reagent (Life Technologies AG, Basel, Switzrland) according to the manufacturer's instructions. Northern blots, UV cross-linking and methylene blue staining of filters, in vitro transcription, hybridization and post-hybridization washes were as previously described (Pepper et al., 1990, J. Cell Biol. 111: 743-755). […] Autoradiograms were scanned and quantitated using ImageQuant (Molecular Dynamics, Sunnyvale, CA).\n(§2) Replicate filters containing total cellular RNA (5 µg/lane) prepared from confluent monolayers of BME cells incubated in the absence (Control) or presence of 10µM (±)-8-prenylnaringenin for the indicated times, were hybridized with ^32P-labelled cRNA probes. RNA integrity and uniformity of loading were determined by staining the filters with methylene blue after transfer and cross-linking (lower panel of the figure); 28S and 18S ribosomal RNAs are shown."}, "uPA [5]": {"system": "uPA", "experiment": "Zymography of cell extracts, uPA activity, BME cells", "conditions": "15 hours, serum-free", "description": "(§3) Confluent monolayers of BME or BAE cells in 35mm gelatin-coated tissue culture dishes were washed twice with serum-free medium, and were treated with (±)-8-Prenylnaringenin in the absence or presence of bFGF or VEGF in serum-free medium containing Trasylol (200 Kallikrein Inhibitory Units/ml). 15 hours later, cell extracts were prepared and analyzed by zymography and reverse zymography as previously described (Vassalli et al., 1984, J. Exp. Med. 159: 1653-1668).\n(§4) Cell extracts (CE) and culture supernatants (Sup) prepared from BME cells incubated with (±)-8-prenylnaringenin at the indicated concentrations in the absence or presence of bFGF (10ng/ml) for 15 hours, were subjected to zymography (uPA, tPA and tPA/PAI-1 complex activities) and reverse zymography (PAI-1 activity)"}, "tPA [6]": {"system": "tPA", "experiment": "Zymography of cell extracts, tPA activity, BAE cells", "description": "as §3\n(§5) Cell extracts (CE) and culture supernatants (Sup) prepared from BAE cells incubated with (±)-8-prenylnaringenin at the indicated concentrations in the absence or presence of bFGF (3ng/ml) for 15 hours, were subjected to zymography (uPA, tPA and tPA/PAI-1 complex activities) and reverse zymography (PAI-1 activity). The second panel marked CE is a longer incubation of the gel shown in the top panel."}, "tPA mRNA": {"system": "tPA mRNA", "experiment": "Northern blot analysis, tPA mRNA, BME cells", "conditions": "10µM, after 9 hours", "description": "as §1, §2"}, "uPAR mRNA [7]": {"system": "uPAR mRNA", "experiment": "Northern blot analysis, uPAR mRNA, BME cells", "conditions": "10µM, after 9 hours", "description": "as §1, §2"}, "PAI-1 mRNA": {"system": "PAI-1 mRNA", "experiment": "Northern blot analysis, PAI-1 mRNA, BME cells", "description": "(§6) (±)-8-Prenylnaringenin or genistein were added to confluent BME cell monolayers to which fresh medium containing 5% DCS had been added 24 hours previously. Total cellular RNA was prepared after the indicated times using Trizol reagent (Life Technologies AG, Basel, Switzrland) according to the manufacturer's instructions. Northern blots, UV cross-linking and methylene blue staining of filters, in vitro transcription, hybridization and post-hybridization washes were as previously described (Pepper et al., 1990, J. Cell Biol. 111: 743-755). [^32P]-labelled cRNA probes were prepared from bovine urokinase-type plasminogen activator (u-PA) (Krätzschmar et al., 1993, Gene 125: 177-183), bovine u-PA receptor (u-PAr) (Krätzschmar et al., 1993, Gene 125: 177-183), human tissue-type PA (t-PA) (Fisher et al., 1985, J. Biol. Chem. 260: 11223-11230) and bovine PA inhibitor-1 (PAI-1) (Pepper et al., 1990, J. Cell Biol. 111: 743-755) cDNAs as previously described (Pepper et al., 1990, J. Cell Biol. 111: 743-755). Filters were exposed to Kodak X-OMAT XAR-5 Scientific Imaging Film (Eastman Kodak Co., Rochester, NY). Autoradiograms were scanned and quantitated using ImageQuant (Molecular Dynamics, Sunnyvale, CA)."}, "uPAR mRNA [8]": {"system": "uPAR mRNA", "experiment": "Northern blot analysis, uPAR mRNA, BAE cells", "description": "as §6"}, "tPA [9]": {"system": "tPA", "experiment": "Northern blot analysis, tPA mRNA, BAE cells", "conditions": "after 24 hours"}, "tPA [10]": {"system": "tPA", "experiment": "Zymography of cell extracts, tPA activity, BME cells", "description": "as §3, §4"}, "PAI-1 [11]": {"system": "PAI-1", "experiment": "Reverse zymography, PAI-1 activity, BAE cells", "description": "as §3, §5"}, "uPA mRNA [12]": {"system": "uPA mRNA", "experiment": "Northern blot analysis, uPA mRNA, BAE cells"}, "uPA [13]": {"system": "uPA", "experiment": "Zymography of cell extracts, uPA activity, BAE cells", "description": "as §3, §5"}, "PAI-1 [14]": {"system": "PAI-1", "experiment": "Reverse zymography, PAI-1 activity, BME cells", "conditions": "15 hours, serum-free", "description": "as §3, §4"}}, "note": "Read-outs that look alike come from different tables or passages of the source."}
{"smiles": "CC(C)=CCc1c(O)cc(O)c2c1OC(c1ccc(O)cc1)CC2=O", "note": "(racemic) [8-Prenylnaringenin, 5,7-Dihydroxy-2-(4-hydroxyphenyl)-8-(3-methylbut-2-enyl)-chroman-4-on]", "values": [{"measurement": "inhibition at 30 µM", "setting": "BME cells [1]; absence of bFGF", "result": 67, "unit": "%"}, {"measurement": "inhibition at 30 µM", "setting": "BME cells [1]; presence of bFGF (10ng/ml)", "result": 75, "unit": "%"}, {"measurement": "IC50", "setting": "BME cells [1]; 120 h, 5 day assay, 5% DCS, with or without bFGF, read-out: IC50 of inhibition of BME cell proliferation (cell number)", "result": "~10", "unit": "µM"}, {"measurement": "in vitro angiogenesis induced by bFGF, VEGF or a combination of the bFGF and VEGF", "setting": "BME cells [2]; BME cells, collagen gel", "result": "inhibits"}, {"measurement": "IC50", "setting": "BME cells [2]; Bos taurus, induced by bFGF (10ng/ml), VEGF (30ng/ml) or both, irrespective of the angiogenic stimulus, read-out: IC50 of inhibition of BME cell invasion", "result": "3 to 10", "unit": "µM"}, {"measurement": "concentration at which frank toxicity was observed", "setting": "BME cells [3]; 15 hours, absence of serum", "result": 30, "unit": "µM"}, {"measurement": "concentration at which toxicity was seen", "setting": "BME cells [3]; presence of 2% serum", "result": 100, "unit": "µM"}, {"measurement": "uPA mRNA steady state level, maximal effect", "setting": "uPA mRNA [4]", "result": 7.5, "unit": "fold increase"}, {"measurement": "uPA activity", "setting": "uPA [5]", "result": "dose-dependent increase"}, {"measurement": "tPA activity", "setting": "tPA [6]; 15 hours, serum-free", "result": "increased"}, {"measurement": "induction of tPA activity, effect of bFGF co-treatment", "setting": "tPA [6]; with bFGF (3ng/ml)", "result": "potentiates"}, {"measurement": "tPA mRNA steady state level, maximal effect", "setting": "tPA mRNA", "result": 9.6, "unit": "fold increase"}, {"measurement": "uPAR mRNA steady state level, maximal effect", "setting": "uPAR mRNA [7]", "result": 6.4, "unit": "fold increase"}, {"measurement": "levels of PAI-1 mRNA", "setting": "PAI-1 mRNA", "result": "no significant effect"}, {"measurement": "uPAR mRNA levels", "setting": "uPAR mRNA [8]", "result": "virtually no effect"}, {"measurement": "tPA levels", "setting": "tPA [9]", "result": 4.6, "unit": "fold increase"}, {"measurement": "tPA activity", "setting": "tPA [10]; 15 hours, serum-free", "result": "dose-dependent increase"}, {"measurement": "induction of tPA activity, combination with VEGF", "setting": "tPA [10]; with VEGF, data not shown", "result": "synergize"}, {"measurement": "induction of tPA activity, effect of bFGF co-treatment", "setting": "tPA [10]; with bFGF (10ng/ml)", "result": "potentiates"}, {"measurement": "PAI-1", "setting": "PAI-1 [11]", "result": "decrease"}, {"measurement": "uPA mRNA levels", "setting": "uPA mRNA [12]", "result": "virtually no effect"}, {"measurement": "uPA activity", "setting": "uPA [13]; 15 hours, serum-free", "result": "increased"}, {"measurement": "bFGF-induced uPA activity", "setting": "uPA [13]; with bFGF (3ng/ml)", "result": "reduces"}, {"measurement": "PAI-1 activity", "setting": "PAI-1 [14]", "result": "reduction"}]}
